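1) Cells in 96-well plates. 2) Compound, 48 h, 5 concentrations. 3) Linear interpolation between surrounding doses. 4) Unreached endpoint = highest concentration. GI50 = concentration required for 50% inhibition of growth. TGI marks complete inhibition of growth.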
Legend:
Experiment in all cases: DTP human tumour cell line panel, 48 h
HOP-92 NSCLC = system: HOP-92 NSCLC
OVCAR-5 ovarian = system: OVCAR-5 ovarian
HCT-116 colon = system: HCT-116 colon
RPMI-8226 leukemia = system: RPMI-8226 leukemia
OVCAR-8 ovarian = system: OVCAR-8 ovarian
U251 CNS = system: U251 CNS
SK-MEL-2 melanoma = system: SK-MEL-2 melanoma
SK-MEL-5 melanoma = system: SK-MEL-5 melanoma
T-47D breast = system: T-47D breast
MDA-MB-231 breast = system: MDA-MB-231 breast
HOP-62 NSCLC = system: HOP-62 NSCLC
NCI-H226 lung = system: NCI-H226 lung

| SMILES | TGI (HOP-92 NSCLC) | TGI (OVCAR-5 ovarian) | TGI (HCT-116 colon) | TGI (RPMI-8226 leukemia) | TGI (OVCAR-8 ovarian) | TGI (U251 CNS) | TGI (SK-MEL-2 melanoma) | TGI (SK-MEL-5 melanoma) | TGI (T-47D breast) | TGI (MDA-MB-231 breast) | TGI (HOP-62 NSCLC) | TGI (NCI-H226 lung) | GI50 (OVCAR-5 ovarian) | GI50 (HOP-62 NSCLC) | GI50 (SK-MEL-5 melanoma) | GI50 (MDA-MB-231 breast) | GI50 (SK-MEL-2 melanoma) | GI50 (NCI-H226 lung) | GI50 (T-47D breast) |
| --- | --- | --- | --- | --- | --- | --- | --- | --- | --- | --- | --- | --- | --- | --- | --- | --- | --- | --- | --- |
| FC(F)(F)C(C1=NC(C(F)(F)F)(C(F)(F)F)N=C(N2CCOCC2)O1)C(F)(F)F | > 100 µM | 46.4 µM | > 100 µM | 57.7 µM | 47.3 µM | > 100 µM | 57.8 µM | 28.4 µM | 89.4 µM | 36.1 µM | – | – | – | – | – | – | – | – | – |
| C=CCOC1OC(CS(=O)(=O)O)C(O)C(O)C1O (centres undefined) | > 100 µM | > 100 µM | > 100 µM | > 100 µM | > 100 µM | > 100 µM | > 100 µM | > 100 µM | > 100 µM | > 100 µM | > 100 µM | > 100 µM | – | – | – | – | – | – | – |
| COc1ccc2oc(=O)cc(C)c2c1 | > 100 µM | > 100 µM | > 100 µM | > 100 µM | > 100 µM | > 100 µM | > 100 µM | > 100 µM | > 100 µM | > 100 µM | > 100 µM | > 100 µM | – | – | – | – | – | – | – |
| C=CC(=O)N1CCN(c2nc(OC[C@@H]3CCCN3C)nc3c2CCN(c2cccc4cccc(C)c24)C3)C[C@@H]1CC#N | – | 3.26 µM | – | – | – | – | – | 3.06 µM | – | 2.78 µM | 1.64 µM | – | 1.58 µM | < 0.01 µM | 1.68 µM | 1.39 µM | – | – | – |
| Cc1ccc2cc3c(ccc4ccccc43)c3c2c1CC3 | > 100 µM | > 100 µM | > 100 µM | > 100 µM | > 100 µM | > 100 µM | > 100 µM | > 100 µM | > 100 µM | > 100 µM | > 100 µM | > 100 µM | > 100 µM | – | – | – | – | – | – |
| CCCCCCCCCCCCCCCC[N+](C)(C)CCN(Cc1ccc(OC)cc1)c1ncccn1 | – | 4.62 µM | – | – | – | – | 6.95 µM | 8.77 µM | 2.98 µM | 4.94 µM | 2.95 µM | 14 µM | 1.91 µM | 1.54 µM | 2.68 µM | 2 µM | 2.88 µM | 2.77 µM | 1.28 µM |
| O=C(O)CSCC(=O)O | > 100 µM | > 100 µM | > 100 µM | – | > 100 µM | > 100 µM | > 100 µM | > 100 µM | – | > 100 µM | > 100 µM | > 100 µM | – | – | – | – | – | – | – |
| CS/C(=N\C(=S)Nc1ccccc1)Nc1ccccc1 | – | 77.3 µM | – | 62.1 µM | 77.4 µM | > 100 µM | 56.4 µM | 21.5 µM | – | – | > 100 µM | 70.5 µM | – | – | – | – | – | – | – |
| Cc1nc(Nc2ccc(F)cc2)c2sc(=S)n(-c3ccc(F)cc3)c2n1 | – | 36.3 µM | 15 µM | 21.9 µM | 35.9 µM | 27.8 µM | 28.6 µM | 27.7 µM | 19.8 µM | 26.9 µM | 24.1 µM | 33.5 µM | – | – | – | – | – | – | – |
| COc1cc2nc(-c3cccs3)nc(N3C(c4ccc(O)cc4)=NNC(=O)c4ccccc43)c2cc1OC | – | 84.2 µM | 86 µM | 47.9 µM | > 100 µM | 75.9 µM | 60.5 µM | > 100 µM | > 100 µM | 42.6 µM | > 100 µM | 41.4 µM | – | – | – | – | – | – | – |
